Test results taken from the supplement of paper PMC10307832.

Legend:
Test in all cases: relative viability (nuclei count vs DMSO), 5 days (fraction); higher = more cells survive
[1] = compound: Nc1ccn([C@@H]2O[C@H](CO)[C@@H](O)C2(F)F)c(=O)n1 [Gemcitabine] + CC(=O)Nc1cccc(-n2c(=O)n(C3CC3)c(=O)c3c(Nc4ccc(I)cc4F)n(C)c(=O)c(C)c32)c1 [Trametinib] (partner 0.02 µM)
Procedure, shortened: (§1)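 Relative viability divides the nuclei count in treated wells by that in vehicle wells. Lung cancer cell lines were seeded in 1536-well plates, dosed by pin tool the next day, and fixed and stained after 5 days in one step with final 0.05% Triton X-100, 1% formaldehyde and 1 ug/ml Hoechst. Dosing was a single drug or a fixed anchor-drug dose plus five library-drug doses (not always all listed) in √10 steps, and values are medians of duplicate plates imaged at 4×.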

[2] = compound: Nc1ccn([C@@H]2O[C@H](CO)[C@@H](O)C2(F)F)c(=O)n1 [Gemcitabine] + O=C(c1cc(Cc2n[nH]c(=O)c3ccccc23)ccc1F)N1CCN(C(=O)C2CC2)CC1 [Olaparib] (partner 8 µM)
Procedure, shortened: as §1

[3] = compound: Nc1ccn([C@@H]2O[C@H](CO)[C@@H](O)C2(F)F)c(=O)n1 [Gemcitabine] + CS(=O)(=O)CCNCc1ccc(-c2ccc3ncnc(Nc4ccc(OCc5cccc(F)c5)c(Cl)c4)c3c2)o1 [Lapatinib] (partner 2 µM)
Procedure, shortened: as §1

[4] = compound: Nc1ccn([C@@H]2O[C@H](CO)[C@@H](O)C2(F)F)c(=O)n1 [Gemcitabine] + N=C(N)NC(=N)NCCc1ccccc1 [Phenformin] (partner 250 µM)
Procedure, shortened: as §1

Cell Line	relative viability ([1]; first compound 0.001 µM)	relative viability ([1]; first compound 0.003162 µM)	relative viability ([1]; first compound 0.01 µM)	relative viability ([1]; first compound 0.03162 µM)	relative viability ([1]; first compound 0.1 µM)	relative viability ([2]; first compound 0.001 µM)	relative viability ([2]; first compound 0.003162 µM)	relative viability ([2]; first compound 0.01 µM)	relative viability ([2]; first compound 0.03162 µM)	relative viability ([2]; first compound 0.1 µM)	relative viability ([3]; first compound 0.001 µM)	relative viability ([3]; first compound 0.003162 µM)	relative viability ([3]; first compound 0.01 µM)	relative viability ([3]; first compound 0.03162 µM)	relative viability ([3]; first compound 0.1 µM)	relative viability ([4]; first compound 0.001 µM)	relative viability ([4]; first compound 0.003162 µM)	relative viability ([4]; first compound 0.01 µM)	relative viability ([4]; first compound 0.03162 µM)	relative viability ([4]; first compound 0.1 µM)
NCI-H1944	0.418	0.416	0.364	0.28	0.154	0.459	0.469	0.358	0.21	0.134	0.848	0.847	0.804	0.45	0.24	0.225	0.193	0.169	0.161	0.132
HARA	0.592	0.635	0.797	0.143	0.107	0.927	1.1	0.535	0.162	0.0774	0.77	0.836	0.794	0.604	0.137	0.498	0.556	0.445	0.222	0.0544
NCI-H2126	0.59	0.57	0.514	0.418	0.305	0.888	0.933	0.867	0.562	0.262	0.704	0.764	0.738	0.615	0.394	0.504	0.422	0.399	0.358	0.216
LXF-289	0.644	0.683	0.611	0.205	0.147	1.07	0.935	0.303	0.0848	0.0776	0.922	0.921	0.783	0.282	0.141	0.517	0.445	0.263	0.0911	0.0812
NCI-H460	0.105	0.211	0.0498	0.0169	0.0076	0.529	0.426	0.333	0.0343	0.022	1.05	1.11	0.278	0.0125	0.009	0.589	0.565	0.0724	0.0156	0.0098
NCI-H1395	1.01	0.841	0.554	0.424	0.359	0.438	0.452	0.423	0.351	0.34	1.02	0.725	0.448	0.32	0.33	0.403	0.417	0.321	0.315	0.318
NCI-H2170	1.02	0.907	0.785	0.167	0.109	0.591	0.636	0.258	0.091	0.104	0.282	0.271	0.244	0.197	0.185	0.426	0.424	0.363	0.196	0.144
NCI-H2009	0.268	0.327	0.16	0.115	0.088	0.717	0.436	0.191	0.102	0.0738	0.929	0.624	0.205	0.129	0.192	0.496	0.317	0.198	0.175	0.146
